Laboratory results: patent US10036048B1, “Process for obtaining a naphthoquinone derivative from Streptomyces sp” (KING SAUD UNIVERSITY, priority 2017, dated 2018)
Values after ≈ are worked out from the molar mass of the structure shown.

Experiments:
[1] = tested on: Streptomyces sp. isolate ERINLG-201; experiment: Antibiotic sensitivity of the isolate; format: cell-based
Protocol: (ERINLG-201). The Streptomyces sp. isolate ERINLG-201 was recovered from Kodanad forest, (Southern Western Ghats) Tamil Nadu, India. The strain was Gram-positive filamentous bacterium. The culture characteristics of the new isolate were observed after 7, 14 and 21 days of incubation on different media. The color of the substrate mycelia was white. […] The temperature for growth ranged from 25 to 37° C. with optimum of 30° C. and the pH range was 6-12 with normal pH of 7. Utilization of various carbon sources by ERINLG-201 indicated a wide pattern of carbon source assimilation. […] The partial 16S rRNA gene sequences of isolate ERINLG-201 have been deposited in the GenBank database under accession number KC820651.

[2] = tested on: Salmonella paratyphi-B; experiment: Minimum inhibitory concentration (MIC), broth dilution; format: cell-based; settings: 24 h at 37° C.
[3] = tested on: A549 lung adenocarcinoma cancer cell line; experiment: Cytotoxic activity (MTT, absorbance at 540 nm); format: cell-based, human
Protocol: A549 lung adenocarcinoma cancer cell line was obtained from the National Institute of Cell Sciences, Pune. A549 cell line was maintained in complete tissue culture medium Dulbecco's Modified Eagle's Medium with 10% Fetal Bovine Serum and 2 mM L-Glutamine, along with antibiotics (about 100 International Unit/mL of penicillin, 100 μg/mL of streptomycin) with the pH adjusted to 7.2. The cytotoxicity was determined according to the method of Balachandran et al., (2013) with some changes. Cells (5000 cells/well) were seeded in 96 well plates containing medium with different concentrations such as 100, 80, 60, 40, 20, and 10 μg/mL. The cells were cultivated at 37° C. with 5% CO2 and 95% air in 100% relative humidity. After various durations of cultivation, the solution in the medium was removed. An aliquot of 100 μL of medium containing 1 mg/mL of 3-(4,5-dimethylthiazol-2-yl)-2,5-diphenyl-tetrazolium bromide was loaded in the plate. The cells were cultured for 4 h and then the solution in the medium was removed. An aliquot of 100 μL of DMSO was added to the plate, which was shaken until the crystals were dissolved. The cytotoxicity against cancer cells was determined by measuring the absorbance of the converted dye at 540 nm in an Enzyme linked immune sorbant assay (ELISA) reader. Cytotoxicity of each sample was expressed as the half maximal inhibitory concentration (IC50) value. The IC50 value is the concentration of test sample that causes 50% inhibition of cell growth, averaged from three replicate experiments.

[4] = tested on: Candida albicans; experiment: Minimum inhibitory concentration (MIC), fungi; settings: read-out: Minimum Inhibitory Concentration (MIC)
[5] = tested on: Malassezia pachydermatis; experiment: Minimum inhibitory concentration (MIC), fungi; settings: read-out: Minimum Inhibitory Concentration (MIC)
[6] = tested on: Bacillus subtilis; experiment: Minimum inhibitory concentration (MIC), broth dilution; settings: 24 h, read-out: Minimum Inhibitory Concentration (MIC)
[7] = tested on: Micrococcus luteus; experiment: as above; settings: 24 h, read-out: Minimum Inhibitory Concentration (MIC)
[8] = tested on: Staphylococcus aureus; experiment: as above; settings: 24 h, read-out: Minimum Inhibitory Concentration (MIC)
[9] = tested on: Staphylococcus epidermidis; experiment: as above; settings: 24 h, read-out: Minimum Inhibitory Concentration (MIC)
[10] = tested on: Enterobacter aerogenes; experiment: as above; settings: Klebsiella aerogenes, 24 h, read-out: Minimum Inhibitory Concentration (MIC)
[11] = tested on: Klebsiella pneumoniae; experiment: as above; settings: 24 h, read-out: Minimum Inhibitory Concentration (MIC)
[12] = tested on: Proteus vulgaris; experiment: as above; settings: 24 h, read-out: Minimum Inhibitory Concentration (MIC)
[13] = tested on: Pseudomonas aeruginosa; experiment: as above; settings: 24 h, read-out: Minimum Inhibitory Concentration (MIC)
[14] = tested on: Salmonella typhimurium; experiment: as above; settings: Salmonella enterica, 24 h, read-out: Minimum Inhibitory Concentration (MIC)
[15] = tested on: Shigella flexneri; experiment: as above; settings: 24 h, read-out: Minimum Inhibitory Concentration (MIC)
[16] = tested on: Staphylococcus aureus (MRSA); experiment: Minimum inhibitory concentration (MIC), clinical isolate; settings: 24 h, read-out: Minimum Inhibitory Concentration (MIC)
[17] = tested on: Klebsiella pneumoniae (ESBL-3894); experiment: as above; settings: 24 h, read-out: Minimum Inhibitory Concentration (MIC)
[18] = tested on: Kiebsiella pneumoniae (ESBL-75799); experiment: as above; settings: 24 h, read-out: Minimum Inhibitory Concentration (MIC)
[19] = tested on: Klebsiella pneumoniae (ESBL-3967); experiment: as above; settings: 24 h, read-out: Minimum Inhibitory Concentration (MIC)
[20] = tested on: Klebsiella pneumoniae (ESBL-3971); experiment: as above; settings: 24 h, read-out: Minimum Inhibitory Concentration (MIC)
[21] = tested on: Escherichia coli (ESBL-3904); experiment: as above; settings: 24 h, read-out: Minimum Inhibitory Concentration (MIC)
[22] = tested on: Escherichia coli (ESBL-3984); experiment: as above; settings: 24 h, read-out: Minimum Inhibitory Concentration (MIC)

CC1(C)S[C@@H]2[C@H](NC(=O)[C@H](N)c3ccccc3)C(=O)N2[C@H]1C(=O)O [ampicillin] was tested, and the “sensitivity of ERINLG-201 towards antibiotic” value [1] was “sensitivity”.
In the case of CN1C(=O)N2CC(C)(OC3=C2C(=O)c2ccccc2C3=O)c2ccccc21 (stereo not drawn) [C-5, Bluemomycin], the MIC [2] is reported as 25 µg/mL (≈ 69.4 µM), the “% (cytotoxicity)” value ([3]; 5 μg/mL) is reported as 10.5% and the “% (cytotoxicity)” value ([3]; 10 μg/mL) is reported as 26.3%. The “% (cytotoxicity)” value ([3]; 20 μg/mL) was 51.7%, the “% (cytotoxicity)” value ([3]; 40 μg/mL) was 60.2% and the “% (cytotoxicity)” value ([3]; 60 μg/mL) was 68.6%. For the same compound, the “% (cytotoxicity)” value ([3]; 80 μg/mL) was 78.6%, the “% (cytotoxicity)” value ([3]; 100 μg/mL) was 88.7% and the MIC [4] was 50 µg/mL (≈ 139 µM). It also gave an MIC [5] of 50 µg/mL (≈ 139 µM), an MIC [6] of 50 µg/mL (≈ 139 µM) and an MIC [7] of 25 µg/mL (≈ 69.4 µM). For the same compound, the MIC [8] was > 100 µg/mL, the MIC [9] was 50 µg/mL (≈ 139 µM) and the MIC [10] was 12.5 µg/mL (≈ 34.7 µM). It also gave an MIC [11] of 6.25 µg/mL (≈ 17.3 µM), an MIC [12] of 100 µg/mL (≈ 277 µM) and an MIC [13] of 12.5 µg/mL (≈ 34.7 µM). It also gave an MIC [14] of 12.5 µg/mL (≈ 34.7 µM), an MIC [15] of 12.5 µg/mL (≈ 34.7 µM) and an MIC [16] of 25 µg/mL (≈ 69.4 µM). For the same compound, the MIC [17] was 12.5 µg/mL (≈ 34.7 µM), the MIC [18] was 12.5 µg/mL (≈ 34.7 µM) and the MIC [19] was 6.25 µg/mL (≈ 17.3 µM). The MIC [20] was > 100 µg/mL, the MIC [21] was 25 µg/mL (≈ 69.4 µM) and the MIC [22] was 12.5 µg/mL (≈ 34.7 µM).
For gentamicin, the “sensitivity of ERINLG-201 towards antibiotic” value [1] was “sensitivity”.
NCC[C@H](O)C(=O)N[C@@H]1C[C@H](N)[C@@H](O[C@H]2O[C@H](CN)[C@@H](O)[C@H](O)[C@H]2O)[C@H](O)[C@H]1O[C@H]1O[C@H](CO)[C@@H](O)[C@H](N)[C@H]1O [amikacin] was tested, and the “sensitivity of ERINLG-201 towards antibiotic” value [1] was “sensitivity”.
For CO[C@H]1/C=C/O[C@@]2(C)Oc3c(C)c(O)c4c(O)c(cc(O)c4c3C2=O)NC(=O)/C(C)=C\C=C\[C@H](C)[C@H](O)[C@@H](C)[C@@H](O)[C@@H](C)[C@H](OC(C)=O)[C@@H]1C [rifamycin], the “sensitivity of ERINLG-201 towards antibiotic” value [1] was “sensitivity”.
For O=C(Cc1cccs1)N[C@@H]1C(=O)N2C(C(=O)[O-])=C(C[n+]3ccccc3)CS[C@H]12 [cephaloridine], the “sensitivity of ERINLG-201 towards antibiotic” value [1] was “sensitivity”.
[H]/N=C(/N)N[C@H]1[C@H](O)[C@@H](O)[C@H](O[C@@H]2O[C@@H](C)[C@](O)(C=O)[C@H]2O[C@@H]2O[C@@H](CO)[C@H](O)[C@@H](O)[C@@H]2NC)[C@@H](N/C(N)=N\[H])[C@@H]1O [Streptomycin] gave an MIC [2] of 6.25 µg/mL (≈ 10.7 µM), an MIC [6] of 25 µg/mL (≈ 43 µM) and an MIC [7] of 6.25 µg/mL (≈ 10.7 µM). It also gave an MIC [8] of 6.25 µg/mL (≈ 10.7 µM), an MIC [9] of 25 µg/mL (≈ 43 µM) and an MIC [10] of 25 µg/mL (≈ 43 µM). It also gave an MIC [11] of 25 µg/mL (≈ 43 µM), an MIC [12] of 6.25 µg/mL (≈ 10.7 µM) and an MIC [13] of 25 µg/mL (≈ 43 µM). The MIC [14] was 25 µg/mL (≈ 43 µM), the MIC [15] was 6.25 µg/mL (≈ 10.7 µM) and the MIC [16] was 6.25 µg/mL (≈ 10.7 µM). For the same compound, the MIC [17] was 6.25 µg/mL (≈ 10.7 µM), the MIC [18] was 25 µg/mL (≈ 43 µM) and the MIC [19] was 25 µg/mL (≈ 43 µM). The MIC [20] was 6.25 µg/mL (≈ 10.7 µM), the MIC [21] was 25 µg/mL (≈ 43 µM) and the MIC [22] was 25 µg/mL (≈ 43 µM).
With vencomycin the “sensitivity of ERINLG-201 towards antibiotic” value [1] was “sensitivity”.
CC[C@H]1OC(=O)[C@H](C)[C@@H](O[C@H]2C[C@@](C)(OC)[C@@H](O)[C@H](C)O2)[C@H](C)[C@@H](O[C@@H]2O[C@H](C)C[C@H](N(C)C)[C@H]2O)[C@](C)(O)C[C@@H](C)C(=O)[C@H](C)[C@@H](O)[C@]1(C)O [erythromycin] was tested, and the “sensitivity of ERINLG-201 towards antibiotic” value [1] was “sensitivity”.
CC(=O)N1CCN(c2ccc(OCC3COC(Cn4ccnc4)(c4ccc(Cl)cc4Cl)O3)cc2)CC1 (stereo not drawn) [Ketoconazole] gave an MIC [4] of 25 µg/mL (≈ 47 µM) and an MIC [5] of 25 µg/mL (≈ 47 µM).
With O=C(O)c1cn(C2CC2)c2cc(N3CCNCC3)c(F)cc2c1=O [ciprofloxacin] the “sensitivity of ERINLG-201 towards antibiotic” value [1] was “sensitivity”.
With penicillin the “sensitivity of ERINLG-201 towards antibiotic” value [1] was “sensitivity”.
For CCn1cc(C(=O)O)c(=O)c2cc(F)c(N3CCNCC3)cc21 [norfloxacin], the “sensitivity of ERINLG-201 towards antibiotic” value [1] was “sensitivity”.
